Test results from US20240279247A1, “PRODRUGS OF BORON COMPOUNDS AND THEIR USE IN TREATING BACTERIAL INFECTIONS” (priority 2022, published 2024).
Read-outs that look alike come from different tables or passages of the source.

Assays:
[1] = tested on: P. aeruginosa PAE 1001; test: In vitro antibacterial activity (MIC), P. aeruginosa; assay type: cell-based; conditions: Pseudomonas aeruginosa, PAE1001
Text: (§1) The in vitro activity of compounds described herein may be assessed by standard testing procedures such as the determination of minimum inhibitory concentration (MIC) as described in Approved Standard. Methods for Dilution Antimicrobial Susceptibility Tests for Bacteria that Grow Aerobically, 3rd ed., 1993, published by the National Committee for Clinical Laboratory standards, Villanova, Pennsylvania, USA. Low MIC values indicate high antibacterial activity, while high MIC values reveal a reduced antibacterial activity (with higher drug concentration required for pathogen eradication in the latter instance). Generally, MIC values of about ≤4-8 μg/mL indicate a therapeutic (i.e. suitable for therapy) potency for antibacterial drugs, while MIC values of ≥16 μg/mL indicate a lack of therapeutically useful activity for a test compound.

[2] = tested on: A. baumannii MABA 0001; test: In vitro antibacterial activity (MIC), A. baumannii; assay type: cell-based; conditions: Acinetobacter baumannii, MABA0001
Text: as §1

[3] = tested on: K. pneumoniae ATCC10031; test: In vitro antibacterial activity (MIC), K. pneumoniae; assay type: cell-based; conditions: Klebsiella pneumoniae
Text: as §1

[4] = tested on: E. coli MECO 002; test: In vitro antibacterial activity (MIC), E. coli; assay type: cell-based; conditions: Escherichia coli, MECO002
Text: as §1

[5] = Pharmacokinetic study in rat (iv or oral gavage); assay type: in vivo, SD rats; conditions: SD rat; for AUC compared with that of Example 5, in words: oral
Text: To further elucidate therapeutic potential of drug compounds, pharmacokinetic (PK) data is used to establish the key parameters predictive of the therapy outcome, such as area under the curve (AUC) for a plot monitoring the change in the systemic drug concentration over time. Thus, a higher AUC value indicates a greater exposure to the drug, commonly associated with a greater therapeutic potential due to a higher amount of drug available to combat the infection in a mammal. In contrast, a lower AUC value indicates a reduced exposure to the drug under study, resulting in a reduced amount of antibiotic available to combat bacterial infestations. To that end, the compounds described herein were tested in a rat PK model of oral administration performed analogously to methods described in the monograph Current Protocols in Pharmacology, 2005, 7.1.1-7.1.26, John Wiley & Sons, Inc.
All the compounds were administered to SD rats (The rats were randomly divided into groups with 3 rats in each group) by intravenous (iv) or oral gavage. Since the prodrugs are expected to convert to the parent molecule in vivo, only the parent compound (the compound of Example 5) was tested for all samples. […] This low bioavailability as well as low exposure (AUC) and C max make it inappropriate for development as oral drug. […] Because the prodrugs usually have larger molecular weight due to the introduction of prodrug substructures, the AUC is corrected by dose and molecular weight (MW) to give AUC per mole, to compare the efficiency among the prodrugs.

[6] = tested on: Pseudomonas aeruginosa WPAE 1004; test: Pseudomonas aeruginosa mouse lung infection model; assay type: in vivo; conditions: ICR mouse, po 10 mg/kg once daily; for WPAE 1004, Lg (CFU/lung) 24 h: oral suspension; for Δ 24 h (Control-Theray), log reduction of CFU in lung: vs untreated control
Method: To establish the efficacy of the compounds described herein in vivo, a Pseudomonas aeruginosa mouse lung infection model was performed by administering test compounds analogously to the method described in Andes et al. in Antimicrobial Agents and Chemotherapy, 2002, 46(11), 3484-3489. In this model, a greater reduction in the bacterial colony-forming units (CFU) indicates more beneficial therapeutic effect (more bacterial eradication), while a lower CFU reduction indicates a lower effect (less bacterial eradication). The in vivo antibacterial effect is also referred to as “efficacy”, in contrast to the term “potency,” which is commonly used for in vitro activity (expressed as MIC).
In the Pseudomonas aeruginosa ICR mouse (The mice were randomly divided into groups with 6 mice in each group) lung infection, reference Example 5 was administered orally at 10 mg/kg once daily. […] As a prodrug for oral administration, the compound of Example 2 and 8 were also given by oral gavage at 10 mg/kg once daily. […] The data is strongly supportive of the prodrug of Example 2 and 8 being converted to reference compound of Example 5 after oral administration to exert the antibacterial activity. The data also supports a high conversion rate.

[7] = Lung vs. plasma distribution study in mice; assay type: in vivo; conditions: Balb/C mouse
[8] = tested on: Gram-negative bacteria, including Pseudomonas aeruginosa, Acinetobacter baumannii, Escherichia coli, and Klebsiella pneumoniae; test: In vitro antibacterial activity (MIC), summary over Gram-negative bacteria; assay type: cell-based; conditions: for in vitro antibacterial activity in words: prodrugs of Example 5, Table 1 data
Text: as §1

[9] = in vivo, iv 5 mg/kg, parent compound (Example 5) measured

SMILES | MIC [1] [µg/mL] | MIC [2] [µg/mL] | MIC [3] [µg/mL] | MIC [4] [µg/mL] | AUC compared with that of Example 5, in words [5] | WPAE 1004, Lg (CFU/lung) 24 h [6] | Δ 24 h (Control-Theray), log reduction of CFU in lung [6] | AUClast, lung ([7]; Example 2 10 mg/kg po, levels for Example 2) [ng·h/g] | AUClast, lung ([7]; Example 2 10 mg/kg po, levels for Example 5) [ng·h/g] | in vitro antibacterial activity in words [8] | AUC [5, 9] [ng·h/mL] | Cmax [5, 9] [ng/mL] | AUClast, lung ([7]; Example 5 10 mg/kg iv, levels for Example 5) [ng·h/g] | Kp ([7]; lung/plasma, Example 5 10 mg/kg iv, levels for Example 5, read-out: AUC ratio (lung/plasma)) | half-life ([7]; lung, Example 5 10 mg/kg iv, levels for Example 5, read-out: t1/2, lung (converted)) [min] | AUC(0-t) ([7]; plasma, Example 5 10 mg/kg iv, levels for Example 5, read-out: AUClast, plasma) [ng·h/mL] | half-life ([7]; plasma, Example 5 10 mg/kg iv, levels for Example 5, read-out: t1/2, plasma (converted)) [min] | MIC range against Gram-negative bacteria ([8]; range over the four strains of Table 1) [µg/mL]
CC(=O)OC[C@H](COc1cccc2c1B(O)O[C@@H]2CN)OC(C)=O.Cl [Example 1, (2S)-3-acetoxy-1-{[(3S)-3-(aminomethyl)-1-hydroxy-1,3-dihydrobenzo[2,1-c][1,2]oxaborol-7-yl]oxy}propan-2-yl acetate hydrochloride] | > 32 | > 32 | > 32 | > 32 | significantly higher |  |  |  |  |  |  |  |  |  |  |  |  | 
CC(C)C(=O)OC[C@H](COc1cccc2c1B(O)O[C@@H]2CN)OC(=O)C(C)C.Cl [Example 2, (2S)-1-{[(3S)-3-(aminomethyl)-1-hydroxy-1,3-dihydrobenzo[2,1-c][1,2]oxaborol-7-yl]oxy}-3-[(2-methylpropanoyl)oxy]propan-2-yl 2-methylpropanoate hydrochloride] | > 32 | > 32 | > 32 | > 32 | significantly higher | 7.50 ± 0.73 Lg (CFU/lung) | 1.77 Lg (CFU/lung) | 968 | 23589 | inactive |  |  |  |  |  |  |  | 
CC(C)(C)C(=O)OC[C@H](COc1cccc2c1B(O)O[C@@H]2CN)OC(=O)C(C)(C)C.Cl [Example 3, (2S)-3-[(2,2-dimethylpropanoyl)oxy]-1-{[(3S)-3-(aminomethyl)-1-hydroxy-1,3-dihydrobenzo[2,1-c][1,2]oxaborol-7-yl]oxy}propan-2-yl 2,2-dimethylpropanoate hydrochloride] | > 32 | > 32 | > 32 | > 32 | significantly higher |  |  |  |  | inactive |  |  |  |  |  |  |  | 
CC(C)C(=O)OC[C@@H]1COc2cccc3c2B(O1)O[C@@H]3CN.Cl [Example 4, [(2S,6S)-2-(aminomethyl)-4-bora-3,5,8-trioxatricyclo[7.3.1.04,13]trideca-1(12),9(13),10-trien-6-yl]methyl 2-methylpropanoate hydrogen chloride] | > 32 | > 32 | > 32 | > 32 | significantly higher |  |  |  |  | inactive |  |  |  |  |  |  |  | 
Cl.NC[C@H]1OB2O[C@H](CO)COC3C=CC=C1C23 (stereo partly drawn) [Example 5, [(2S,6R)-2-(aminomethyl)-4-bora-3,5,8-trioxatricyclo[7.3.1.04,13]trideca-1(12),10-dien-6-yl]methanol hydrochloride, reference compound] | 2 | 2 | 4 | 2 |  | 8.56 ± 0.49 Lg (CFU/lung) | 0.53 Lg (CFU/lung) |  |  |  | 5660 | 6780 | 12822 | 2.39 | 87.6 | 5360 | 112 | 2 to 4
CCC(=O)OC[C@H](COc1cccc2c1B(O)O[C@@H]2CN)OC(=O)CC.Cl [Example 6] |  |  |  |  | significantly higher |  |  |  |  |  |  |  |  |  |  |  |  | 
CC(=O)OC[C@@H]1COc2cccc3c2B(O1)O[C@@H]3CN.Cl [Example 7, [(2S,6S)-2-(aminomethyl)-4-bora-3,5,8-trioxatricyclo[7.3.1.04,13]trideca-1(12),9(13),10-trien-6-yl]methyl acetate hydrogen chloride] |  |  |  |  | significantly higher |  |  |  |  |  |  |  |  |  |  |  |  | 
CCC(=O)OC[C@@H]1COc2cccc3c2B(O1)O[C@@H]3CN.Cl [Example 8, [(2S,6S)-2-(aminomethyl)-4-bora-3,5,8-trioxatricyclo[7.3.1.04,13]trideca-1(12),9(13),10-trien-6-yl]methyl propanoate hydrogen chloride] | > 32 | > 32 | > 32 | > 32 | significantly higher | 8.45 ± 0.64 Lg (CFU/lung) | 0.82 Lg (CFU/lung) |  |  | inactive |  |  |  |  |  |  |  | 
